# Test results published in patent US10207991B2, “Isoindoline compositions and methods for treating neurodegenerative disease” (priority 2014, dated 2019).
# Assay: Mouse liver microsome (MLM) stability
# Assay type: in vitro ADME
# Experimental: A first pharmacokinetic study was performed in microsomes of mice mouse liver microsomes, MLM) by a commercial contract research organization. The studies were performed according to Obach, R. S et al. (1997) J. Pharmacol. Exp. Ther., 283: 46-58, which is incorporated herein by reference.
row,Structure (SMILES),"Mouse liver microsomes, MLM t½"
1,C[C@H](CCc1ccc(O)c(OC(C)(C)C)c1)N1Cc2ccc(S(C)(=O)=O)cc2C1 [compound 63],31 min
2,COc1cc2c(cc1OC)CN(C(C)(C)CCc1ccc(F)cc1)C2 [compound 34],46 min
3,CC(C)(CCc1ccc(O)c(OC(F)(F)F)c1)N1Cc2c(F)ccc(F)c2C1 [compound 55],34 min
4,CC(C)COc1cc(CCC(C)(C)N2Cc3cccc(F)c3C2)ccc1O [compound 88],28 min
5,C[C@H](CCc1ccc(OC(=O)N(C)C)c(OC(F)(F)F)c1)N1Cc2cccc(F)c2C1 [compound 41],9 min
6,CN(C)C(=O)c1cccc2c1CN(C(C)(C)CCc1ccc(O)c(OC(F)(F)F)c1)C2 [compound 57],26 min
7,COc1cc(CCC(C)(C)N2Cc3ccc(F)cc3C2)ccc1OCCO [compound 45],96 min
8,COc1cc(CC[C@@H](C)N2Cc3cccc(F)c3C2)ccc1O [compound 8],16 min
9,COc1cc(CCC(C)(C)N2Cc3cccc(F)c3C2)ccc1OCCO [compound 44],29 min
10,COc1cc(CCC(C)(C)N2Cc3cccc(C(=O)N4CCN(C)CC4)c3C2)ccc1O [compound 82],27 min
11,CN(C)C(=O)c1cccc2c1CN(C(C)(C)CCc1ccc(O)c(OC(C)(C)C)c1)C2 [compound 59],8 min
12,COc1cc2c(cc1OC)CN([C@H](C)CCc1ccc(Cl)c(Cl)c1)C2 [compound 11],61 min
13,C[C@H](CCc1ccc(OC(=O)N(C)C)c(OC(F)(F)F)c1)N1Cc2ccc(F)cc2C1 [compound 43],5 min
14,COc1cc(CCC(C)(C)N2Cc3cccc(C(=O)N(C)CCN(C)C)c3C2)ccc1O [compound 81],88 min
15,COc1cc(CC[C@@H](C)N2Cc3ccc(Cl)cc3C2)ccc1O [compound 1],11 min
16,C[C@H](CCc1ccc(O)c(OC(F)(F)F)c1)N1Cc2ccc(F)cc2C1 [compound 31],6 min
17,CC(C)(CCc1ccc(O)c(OC(F)(F)F)c1)N1Cc2cccc(S(C)(=O)=O)c2C1 [compound 67],39 min
18,COCCN(C)C(=O)c1cccc2c1CN(C(C)(C)CCc1ccc(O)c(OC)c1)C2 [compound 86],19 min
19,C[C@H](CCc1ccc(F)cc1)N1Cc2cc3c(cc2C1)OCO3 [compound 23],5 min
20,CC(C)Oc1cc(CC[C@@H](C)N2Cc3ccc(S(C)(=O)=O)cc3C2)ccc1O [compound 69],75 min
21,CC(C)Oc1cc(CCC(C)(C)N2Cc3ccc(S(C)(=O)=O)cc3C2)ccc1O [compound 70],79 min
22,COc1cc(CC[C@@H](C)N2Cc3ccc(C(F)(F)F)cc3C2)ccc1O [compound 2],28 min
23,CC(=O)N1CCN(C(=O)c2cccc3c2CN(C(C)(C)CCc2ccc(O)c(OCC(C)C)c2)C3)CC1 [compound 92],7 min
24,CN1CCN(C(=O)c2cccc3c2CN(C(C)(C)CCc2ccc(O)c(OC(F)(F)F)c2)C3)CC1 [compound 93],5 min
25,COc1cc(CCC(C)(C)N2Cc3cccc(F)c3C2)ccc1O [compound 53],21 min

row,Structure (SMILES),"Mouse liver microsomes, MLM t½"
1,C[C@H](CCc1ccc(Cl)c(Cl)c1)N1Cc2cccc(Cl)c2C1.Cl [compound 16],12 min
2,CC(C)(CCc1ccc(F)cc1)N1Cc2cc3c(cc2C1)OCO3 [compound 36],47 min
3,COc1cc(CC[C@@H](C)N2Cc3cccc(F)c3C2)ccc1OCCO [compound 51],66 min
4,CC(C)(CCc1ccc(O)c(OC(F)(F)F)c1)N1Cc2cccc(F)c2C1 [compound 54],12 min
5,COc1cc(CCC(C)(C)N2Cc3ccc(F)cc3C2)ccc1OC(=O)N(C)C [compound 50],33 min
6,CC(C)Oc1cc(CCC(C)(C)N2Cc3cc4c(cc3C2)OCO4)ccc1O [compound 29],6 min
7,COc1cc(CCC(C)(C)N2Cc3cc4c(cc3C2)OCO4)ccc1OCCO [compound 47],91 min
8,CC(C)Oc1cc(CCC(C)(C)N2Cc3cccc(F)c3C2)ccc1O [compound 28],4 min
9,C[C@H](CCc1ccc(Cl)c(Cl)c1)N1Cc2cccc(F)c2C1 [compound 9],12 min
10,CC(C)(CCc1ccc(F)cc1)N1Cc2ccc(F)cc2C1 [compound 35],9 min
11,COc1cc(CC[C@@H](C)N2Cc3cc4c(cc3C2)OCO4)ccc1O [compound 6],20 min
12,CC(C)Oc1ccc(CC[C@@H](C)N2Cc3cc4c(cc3C2)OCO4)cc1OC(C)C [compound 40],6 min
13,CC(C)COc1cc(CCC(C)(C)N2Cc3ccc(S(C)(=O)=O)cc3C2)ccc1O [compound 87],86 min
14,C[C@H](CCc1ccc(Cl)c(Cl)c1)N1Cc2cc(Cl)c(Cl)cc2C1 [compound 5],53 min
15,COc1cc(CCC(C)(C)N2Cc3cccc(C(=O)NCCN(C)C)c3C2)ccc1O [compound 78],450 min
16,CC(C)COc1cc(CCC(C)(C)N2Cc3cccc(C(=O)N(C)C)c3C2)ccc1O [compound 89],17 min
17,C[C@H](CCc1ccc(O)c(OC(C)(C)C)c1)N1Cc2c(F)ccc(F)c2C1 [60A],5 min
18,C[C@H](CCc1ccc(O)c(OC(C)(C)C)c1)N1Cc2cccc(F)c2C1 [60B],8 min
19,CC(C)COc1cc(CCC(C)(C)N2Cc3cccc(C(=O)N4CCOCC4)c3C2)ccc1O [compound 90],9 min
20,CC(C)(CCc1ccc(O)c(OC(F)(F)F)c1)N1Cc2cccc(C(=O)N3CCOCC3)c2C1 [compound 94],14 min
21,COc1cc(CC[C@@H](C)N2Cc3cc4c(cc3C2)OCO4)ccc1OCCO [compound 52],97 min
22,CC(C)(C)Oc1cc(CCC(C)(C)N2Cc3cccc(S(C)(=O)=O)c3C2)ccc1O [compound 66],10 min
23,COc1cc(CCC(C)N2Cc3ccc4ccccc4c3C2)ccc1O.Cl (centres unmarked) [compound 17],10 min
24,COC[C@H](CCc1ccc(Cl)c(Cl)c1)N1Cc2ccc(F)cc2C1 [compound 46],5 min

# Further lines, results first:
row,"Mouse liver microsomes, MLM t½",Structure (SMILES)
1,45 min,CC(C)(C)Oc1cc(CCC(C)(C)N2Cc3ccc(S(C)(=O)=O)cc3C2)ccc1O [compound 62]
2,5 min,C[C@H](CCc1ccc(O)c(OC(F)(F)F)c1)N1Cc2cc3c(cc2C1)OCO3 [compound 24]
3,15 min,COc1ccc2c(c1)CN([C@H](C)CCc1ccc(Cl)c(Cl)c1)C2.Cl [compound 15]
4,41 min,COc1cc(CC[C@@H](C)N2Cc3cccc(S(C)(=O)=O)c3C2)ccc1O [compound 65]
5,7 min,C[C@H](CCc1ccc(F)cc1)N1Cc2ccc(F)cc2C1 [compound 22]
6,43 min,COc1cc2c(cc1OC)CN([C@@H](C)CCc1ccc(Cl)c(Cl)c1)C2 [compound 20]
7,52 min,COc1cc(CCC(C)(C)N2Cc3cccc(S(C)(=O)=O)c3C2)ccc1O [compound 64]
8,25 min,C[C@H](CCc1ccc(Cl)c(Cl)c1)N1Cc2ccc3ccccc3c2C1 [compound 19]
9,14 min,CC(C)Oc1ccc(CCC(C)(C)N2Cc3ccc(F)cc3C2)cc1OC(C)C [compound 42]
10,21 min,COc1cc(CC[C@@H](C)N2Cc3cc(Cl)c(Cl)cc3C2)ccc1O [compound 3]
11,4 min,CC(C)Oc1cc(CC[C@@H](C)N2Cc3cccc(F)c3C2)ccc1O [compound 26]
12,7 min,C[C@H](CCc1ccc(F)cc1)N1Cc2cccc(F)c2C1 [compound 21]
13,21 min,CC(C)(C)Oc1cc(CCC(C)(C)N2Cc3c(F)ccc(F)c3C2)ccc1O [compound 74]
14,5 min,CC(C)Oc1cc(CC[C@@H](C)N2Cc3ccc(F)cc3C2)ccc1O [compound 37]
15,6 min,CC(C)COc1cc(CCC(C)(C)N2Cc3cccc(C(=O)N4CCN(C)CC4)c3C2)ccc1O [compound 91]
16,9 min,CC(C)(CCc1ccc(F)cc1)N1Cc2cccc(F)c2C1 [compound 33]
17,4 min,CC(C)Oc1cc(CC[C@@H](C)N2Cc3cc4c(cc3C2)OCO4)ccc1O [compound 25]
18,13 min,C[C@H](CCc1ccc(Cl)c(Cl)c1)N1Cc2ccc(F)cc2C1.Cl [compound 12]
19,40 min,C[C@H](CCc1ccc(Cl)c(Cl)c1)N1Cc2ccc(C(F)(F)F)cc2C1 [compound 4]
20,45 min,COc1cc(CCC(C)(C)N2Cc3cccc(C(=O)N4CCOCC4)c3C2)ccc1O [compound 80]
21,3 min,Cc1ccc2c(c1)CN([C@H](C)CCc1ccc(Cl)c(Cl)c1)C2 [compound 13]
22,8 min,C[C@H](CCc1ccc(Cl)c(Cl)c1)N1Cc2cc3c(cc2C1)OCO3 [compound 10]
